# Test results: PMC10216478, “Development of a Non-Peptide Angiotensin II Type 1 Receptor Ligand by Structural Modification of Olmesartan as a Biased Agonist” (Biomedicines, 2023)
# Target: T1, AT1 Q257A receptor (Rattus norvegicus, UniProt P25095, Q257A)
# T1 construct: expressed in transfected cells; host or cells: COS7
# T1 sequence (P25095 1-359 Q257A): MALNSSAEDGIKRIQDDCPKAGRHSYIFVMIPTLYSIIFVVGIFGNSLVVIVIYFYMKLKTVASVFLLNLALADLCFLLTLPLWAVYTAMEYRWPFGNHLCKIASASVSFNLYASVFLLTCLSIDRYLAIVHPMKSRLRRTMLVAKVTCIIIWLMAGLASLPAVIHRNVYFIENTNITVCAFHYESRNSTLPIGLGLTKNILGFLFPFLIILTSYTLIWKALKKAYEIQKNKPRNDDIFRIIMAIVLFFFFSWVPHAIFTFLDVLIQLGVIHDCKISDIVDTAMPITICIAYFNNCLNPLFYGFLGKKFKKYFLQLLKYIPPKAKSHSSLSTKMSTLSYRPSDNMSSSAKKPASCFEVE
# Test: Competition binding study, 125I-[Sar1,Ile8]Ang II, AT1 Q257A receptor
# Conditions: competition with 125I-[Sar1,Ile8]Ang II, n = 3, mean ± standard error, read-out: Binding affinity (Kd)
# Source text: We mutated four amino acids in transmembrane (TM) III, VI, and VII in the AT1 receptor (L112A, Q257A, Y292A, and N295A receptors). We determined the mutation sites of the AT1 receptor according to ARB, which produced olmesartan derivatives with different interactions and functions toward the AT1 receptor, as previously reported by Zhang et al., since the additional 4-hydroxybenzyl groups of R781253 and R794847 were predicted to extend to a sub-pocket on the bottom of the AT1 receptor ligand-binding pocket consisting of Leu^112 and Gln^257. In addition, since the biased ligand TRV027 induced changes near the NPxxY motif in TM domain 7 that are related to receptor activation, Tyr^292 and Asn^295 in the AT1 receptor were mutated.
# The synthetic rat AT1 receptor gene, which was cloned in the shuttle expression vector pMT-2, was used for expression and mutagenesis, as described previously. COS7 cells (No. CRL-1651, ATCC, Manassas, VA, USA) were cultured in 10% fetal bovine serum (FBS) and penicillin- and streptomycin-supplemented Dulbecco’s modified Eagle’s essential medium (PS-DMEM) in 5% CO2 at 37 °C. In the experiments, cells were grown without a cell-growth supplement. To express the AT1 receptor protein, 10 µg of purified plasmid DNA per 10^7 cells was used in the transfection. Wild-type and mutated AT1 receptors were transiently transfected into cells using Lipofectamine 2000 liposomal reagent (Roche Applied Science, Penzberg, Germany). Cells were plated and grown and were 70–90% confluent at the time of transfection. We incubated plasmid DNA (10 µg)–lipid (10 µL) complexes for 5 min at room temperature and added and incubated the complexes with cells for 24 h. We then analyzed the parameters in transfected cells. Cell viability was >95% according to trypan blue exclusion analysis in the control experiments. Transfected cells that had been cultured for 48–72 h were harvested. Cell membranes were prepared using the nitrogen Parr bomb disruption or freeze–thaw methods.
# The Kd (nM) values of receptor binding were determined with ^125I-[Sar^1, Ile^8]AngII-binding experiments under equilibrium conditions. Binding kinetics were determined following the methods described in the literature. We carried out binding by using ^125I-[Sar^1, Ile^8] AngII (2200 Ci/mmol) and an increasing concentration (10^−11–10^−5 M) of each unlabeled compound. Nonspecific binding of ^125I-[Sar^1, Ile^8] Ang II was determined in the presence of a high concentration (10^−6 M) of unlabeled [Sar^1, Ile^8]. Next, the incubation mixture was separated by vacuum filtration through Whatman GF/C glass filters (Disposable Filter Funnels Grade GF/C, GE Healthcare), and presoaked with 0.1% polyethylenimine. The filter was washed with 3 mL of ice-cold stop buffer (25 mM Tris–HCl, pH 7.4, 1 mM MgCl2). The radioactivity trapped on the filters was quantified using an automatic γ-counter. The percentage (%) of specific binding of ^125I-[Sar^1, Ile^8]Ang II was calculated using the following formula: 100 × (% total binding of ^125I-[Sar^1, Ile^8]Ang II—nonspecific binding of ^125I-[Sar^1, Ile^8]Ang II)/(% total binding of ^125I-[Sar^1, Ile^8]Ang II).
row,Kd [nM],Structure (SMILES)
1,228 ± 38,"CCCc1nc(C(C)(C)O)c(C(=O)O)n1Cc1ccc(-c2ccccc2-c2nnn[nH]2)cc1 [Olmesartan, olmesartan]"
2,20 ± 2,CCCc1nc(C(C)(C)O)c(C(N)=O)n1Cc1ccc(-c2ccccc2-c2nnn[nH]2)cc1 [R239470]
3,14 ± 6,CCCc1nc(C(C)(C)O)c(C(=O)O)n1Cc1ccc(-c2cc(Cc3ccc(O)cc3)ccc2-c2nnn[nH]2)cc1 [R781253]
4,2.7 ± 0.8,CCCc1nc(C(C)(C)O)c(C(N)=O)n1Cc1ccc(-c2cc(Cc3ccc(O)cc3)ccc2-c2nnn[nH]2)cc1 [R794847]
